Results reported in article PMC3371734 (The Journal of Experimental Medicine, 2012).

Assays:
α3 GlyR [1] = biological target: T1, α3 GlyR (Rattus norvegicus, UniProt P24524); assay: whole-cell patch clamp, potentiation of glycine current; assay type: cell-based; settings: HEK 293 cells, allosteric potentiator, sustained application
T1 sequence (P24524 34-464): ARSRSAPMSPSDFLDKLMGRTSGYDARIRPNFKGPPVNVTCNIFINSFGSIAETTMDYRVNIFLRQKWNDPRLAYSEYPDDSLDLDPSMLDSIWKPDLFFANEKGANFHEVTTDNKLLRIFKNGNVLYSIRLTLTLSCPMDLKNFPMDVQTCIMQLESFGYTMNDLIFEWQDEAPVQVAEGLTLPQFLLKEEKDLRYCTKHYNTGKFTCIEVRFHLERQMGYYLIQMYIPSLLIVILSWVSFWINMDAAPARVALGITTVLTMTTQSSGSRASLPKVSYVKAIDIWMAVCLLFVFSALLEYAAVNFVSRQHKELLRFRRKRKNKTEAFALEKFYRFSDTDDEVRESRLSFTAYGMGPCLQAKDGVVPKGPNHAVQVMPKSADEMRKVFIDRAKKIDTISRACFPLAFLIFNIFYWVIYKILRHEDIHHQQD

α3 GlyR [2] = biological target: T1, α3 GlyR; assay: whole-cell patch clamp, glycine currents; assay type: cell-based

Q: For `C=C(C)[C@@H]1CCC(C)=C[C@H]1c1c(O)cc(CCCCC)cc1O` [CBD, cannabidiol], which “% potentiation at 1 μM” value (α3 GlyR [1]) is on record?
A: 491 ± 101%

Q: `NCC(=O)O` [glycine] was tested. Which EC50 (α3 GlyR [2]) did it give?
A: 377 ± 45 µM
